Experimental data taken from patent US20050152995A1, “Methods and compositions for promoting axon regeneration and cell replacement therapy” (priority 2003, published 2005).
Where two headings read alike, the source gives them in different places.

Tests used:
[1] = test system: inner limiting membrane (ILM) of the retina; experiment: Retinal transplantation into collagenase-treated wild-type retinas; type: in vivo, mouse; conditions: collagenase 100 U/ml, n=4
Protocol: To distinguish implanted cells and their cellular processes from the host environment, we used retinas from mice expressing an enhanced green fluorescent protein (EGFP) transgene driven by a chicken b-actin promoter and cytomegalovirus enhancer (24′). Suspensions of retinal cells from postnatal day 0 (P0) EGFP mice were injected into the subretinal space of adult wild-type or GFAP−/−Vim−/− hosts. […] To confirm that this failure of neural integration into the wild-type hosts was not a result of the site of transplantation, we injected cells into the vitreous cavity (n=4) (FIG. 6B). […] Few neurons migrated and extended neurites into the damaged retinal area but not beyond (FIG. 1B).
To exclude the possibility that this change in the property of the ILM in GFAP−/−Vim−/− mice affected the fate of retinal transplants, we treated wild-type retinas with collagenase (100 U/ml) to break down the ILM (n=4). By comparing with untreated wild-type hosts (n=3), we found no difference in graft cell migration and neurite extension into the retinas of collagenase treated and untreated mice (data not shown).

[2] = test system: severed optic nerve (astrocytes, RGC axons); type: in vivo, mouse; conditions: for axonal regeneration after optic nerve crush: n=5
Protocol: Optic nerve crush was performed in Bcl-2tg (14) and wild-type littermate mouse pups, prior to the knowledge of genotypes. Regeneration was assessed and corroborated by three labeling methods: anterograde axon tracing, immunofluorescent staining, and retrograde labeling of RGCs that regenerated their axons. […].
To assess the functional significance of astrocyte maturation in optic nerve regeneration, we treated adult (2-3-month-old) wild-type and Bcl-2tg mice with astrotoxin (L-alpha-aminoadipate), which selectively kills astrocytes and has minimal effects on surrounding neurons and myelin (25, 26). Immediately after optic nerve crush, gelform soaked in L-alpha-aminoadipate solution (10 mg/ml in PBS, Sigma) or PBS was placed against the crush site. […] Regenerating axons extended exclusively into the GFAP-negative area and stopped abruptly where GFAP staining reappeared (FIG. 4B, D).
To quantify axonal regeneration, we used electron microscopy to examine optic nerve sections of adult wild-type and Bcl-2tg mice treated with astrotoxin or PBS. Degenerating myelin and tissue debris were found in sections of all groups (FIG. 4I, J). In treated Bcl-2tg mice (n=5), a large number of regenerating axons were seen 0.5 mm posterior to the crush site, an area devoid of astrocytes and their cellular processes (FIG. 4J). […] In contrast, in other three groups, few axons were present in optic nerve sections if they were collected at 0.5 mm posterior to the crush (n=3/group). Regenerating axons were 20-fold more abundant in astrotoxin-treated Bcl-2tg mice than in PBS-treated wild-type mice (P<0.001) (FIG. 4K). Thus, elimination of mature astrocytes promoted robust optic nerve regeneration in adult Bcl-2tg mice.

[3] = test system: severed optic nerve (astrocytes, RGC axons); type: in vivo, mouse
Protocol: To evaluate the effects of lithium used simultaneously with astrotoxin in optic nerve regeneration in adult mice, an on optic nerve crush was performed in adult mice. Immediately after the optic nerve crush, a piece of gelform soaked in astrotoxin solution or PBS was placed against the crush site. Thereafter, mice were divided into two groups: one group received a diet containing lithium, and the other received a control diet.
Mice were sacrificed on day 8 after the nerve crush to examine axon regeneration.
Surgical procedure: All experimental procedures and use of animals were approved by Animal Care and Use Committee in the Schepens Eye Research Institute and adhered to the ARVO statement for the Use of Animals in Ophthalmic and Vision Research. Adult C57BL/6J mice were anesthetized with a mixture of ketamine (12.5 mg/ml, Sigma) and xylazine (2.5 mg/ml, Sigma) (5 μ/g). Optic nerve was exposed intraorbitally and crushed for 3 seconds using fine forceps. Immediately after nerve crush, a piece of gelfoam soaked with L-α-aminoadipate (10 mg/ml; Sigma) was placed against the crushed site. Gelfoam soaked with phosphate buffered saline (PBS) was used as control. To ensure continued delivery of astrotoxin, the gelfoam was replaced every 3 days post-injury (DPI). Following recovery from the optic nerve surgery, mice were divided into two groups: one group received a diet supplemented with lithium ([…], Bio-Serv), and the other group received a control diet. Mice were sacrificed on 8 DPI, and the mouse serum was collected to determine serum lithium concentration (Medtox Laboratories Inc).
(§1) Retinal histology and immunohistochemistry: The eyeball and optic nerve were dissected out, fixed in 4% paraformaldehyde for 1 hr, cryoprotected and embedded in O.T.C. The tissues were then cryosectioned at 12 μm and subjected to cresyl violet staining or immunohistochemistry. For immunofluorescence labeling, tissue sections were reacted with Cy-3 conjugated mouse anti-GFAP (1:1000, Sigma) or rabbit anti-GAP-43 (1:200, Chemicon). The signal of GAP-43 was then visualized by FITC-conjugated goat anti-rabbit IgG (1:250, Vector Lab.). To detect the expression of Bcl-2 protein, the eyeballs were dissected out and embedded without fixation. Before immunostaining, retinal sections were fixed with acetone that was stored at −20° C. for 15 min and incubated with Bcl-2 antibody (1:50, Transduction lab) followed by reaction with biotinylated anti-mouse IgG (1:100, Vector Lab.) and DTAF-conjugated Streptavidin (1:100, Jackson Lab). The sections were then counter-stained with DAPI (1:150, Sigma) to reveal cell nuclei before they were mounted with Vectashield (Vector Lab) and examined under epifluorescence microscope.
Quantitation of Axon Regeneration: Following staining with anti-GAP-43 antibody, the longest distance of axon regeneration axon was measured from the crushed site in optic nerve sections. At least 4 sections were sampled from each optic nerve, and the measured lengths of regenerating axons were averaged. Statistical significance was determined by One-way ANOVA and Tukey-Kramer multiple comparison tests.

Bcl-2 = test system: Bcl-2
From the text: as §1

[4] = test system: retinal ganglion cells (RGCs)
Protocol: The neuroprotective effect of lithium-containing diet on the survival of fluorogold (FG)-labeled RGCs was assessed.
After sacrificing, whole-mount retinas were prepared. At least 12 non-overlapping areas of the retina were selected randomly and photographed. Surviving RGCs that were labeled with FluoroGold were counted, and the density of survival RGCs was determined.

[5] = mice on lithium-containing diet, n=9, 8 DPI
Protocol: To determine whether lithium induces the expression of Bcl-2 in adult retinal neurons in vivo, we fed mice with food chow containing lithium.
Adult C57BL/6J mice were anesthetized with a mixture of ketamine (12.5 mg/ml, Sigma) and xylazine (2.5 mg/ml, Sigma) (5 μ/g). […] Mice were sacrificed on 8 DPI, and the mouse serum was collected to determine serum lithium concentration (Medtox Laboratories Inc).

[6] = adult wild-type mice, day 8 after nerve crush

## collagenase
[1]
  graft cell migration and neurite extension into the retina vs untreated hosts: no difference

## N[C@@H](CCCC(=O)O)C(=O)O [astrotoxin, L-alpha-aminoadipate]
[2]; adult Bcl-2tg mice, electron microscopy, 0.5 mm posterior to the crush, P<0.001
  abundance of regenerating axons relative to PBS-treated wild-type mice: 20 fold
[2]; adult Bcl-2tg mice
  axonal regeneration after optic nerve crush: robust regeneration
[2]; adult wild-type and Bcl-2tg mice, 10 mg/ml in PBS on gelform at crush site
  GFAP immunofluorescence staining in the optic nerve: created a GFAP-negative area
[2]; adult wild-type and Bcl-2tg mice, immunofluorescence staining
  effect on myelin and neuronal processes: no effect
[2]; adult wild-type mice
  axonal regeneration after optic nerve crush: a few axons sprouted past the lesion site
[3]; [6]
  GFAP expression along the crushed optic nerve: a region devoid of immunorective astrocytes (GFAP-negative) was generated
  axon regeneration (GAP-43 labeling): no sign of regeneration
[3]; anti-GAP-43 immunostaining, day 8 after nerve crush
  length of regenerating axons extending from the crushed site: 50 μm

## O=C([O-])[O-].[Li+].[Li+] [lithium, lithium carbonate]
Bcl-2; RT-PCR, lithium-containing diet vs regular diet
  Bcl-2 mRNA in retina: strong induction
Bcl-2; immunostaining, lithium-containing diet
  Bcl-2 protein expression in retina: detected in the ganglion cell layer
[3]; mouse, in vivo
  GFAP expression along the crushed optic nerve: detected along the entire nerve
  axon regeneration (GAP-43 labeling): no sign of regeneration
  length of regenerating axons extending from the crushed site: 80 μm
[4]; following optic nerve crush, not significant vs control (P>0.05)
  number of surviving RGCs: 404 /mm^2
[4]; normal retina
  density of FG-labeled RGCs: 2134 /mm^2
[5]
  serum concentration of lithium: 0.80±0.15 mEq/l
